Reference: patent US12655127B2, “Fused ring compound as Wee-1 inhibitor” (WIGEN BIOMEDICINE TECHNOLOGY (SHANGHAI) CO., LTD., priority 2021, dated 2026)
pIC50: −log10 of the molar value.

Target: recombinant protein Wee-1 (Homo sapiens, UniProt P30291)
Test: Inhibition of enzymatic activity of recombinant protein Wee-1 (HTRF)
Format: biochemical
Description: The inhibitory effect of the compounds on the enzyme activity of recombinant protein Wee-1 was determined by HTRF. The procedures are as follows:
After DMSO or serially diluted compounds (up to 200 nM, 1:5 serially diluted) and recombinant proteins were co-incubated in a kinase buffer at 37° C. for 30 min Fluorescein-PolyGAT and ATP were added, and then the reaction was started by the addition of a substrate. After incubation at room temperature for 90 min, an antibody and a detection solution were added, and after further incubation at room temperature for 60 min, fluorescence values were detected (excitation wavelength: 340 nm, emission wavelengths: 495 and 520 nm). The 520 nm/495 nm fluorescence intensity ratio value was calculated, and compared with that of the DMSO group, and then the inhibition percentages and IC50 values of the compounds were calculated.

recombinant protein Wee-1, sequence (P30291 whole entry): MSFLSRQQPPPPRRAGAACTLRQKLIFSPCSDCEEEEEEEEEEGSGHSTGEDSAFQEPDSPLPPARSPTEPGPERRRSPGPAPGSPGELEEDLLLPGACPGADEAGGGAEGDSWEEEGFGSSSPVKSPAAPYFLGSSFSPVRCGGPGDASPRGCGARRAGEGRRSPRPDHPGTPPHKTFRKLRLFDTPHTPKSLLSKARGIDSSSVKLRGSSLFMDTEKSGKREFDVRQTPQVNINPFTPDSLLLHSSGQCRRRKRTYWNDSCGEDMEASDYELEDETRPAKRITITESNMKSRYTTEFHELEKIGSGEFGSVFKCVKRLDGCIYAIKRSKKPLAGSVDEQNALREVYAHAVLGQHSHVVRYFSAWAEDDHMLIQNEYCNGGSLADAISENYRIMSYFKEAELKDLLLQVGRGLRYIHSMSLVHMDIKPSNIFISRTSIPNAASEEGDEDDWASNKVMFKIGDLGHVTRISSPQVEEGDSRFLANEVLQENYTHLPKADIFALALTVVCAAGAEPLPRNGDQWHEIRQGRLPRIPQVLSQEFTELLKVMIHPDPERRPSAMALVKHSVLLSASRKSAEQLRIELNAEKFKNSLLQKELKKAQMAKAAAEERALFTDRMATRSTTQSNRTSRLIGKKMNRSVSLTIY

| SMILES | pIC50 |
| --- | --- |
| CN1Cc2cc(Nc3ncc(C#N)c(Nc4cccc(N=S(C)(C)=O)n4)n3)cc3c2C(CCCO3)C1 (stereo not shown) [Compound 74] | ≥ 8.00 |
| CN1Cc2cc(Nc3ncc(C#N)c(Nc4cccc(N=S(C)(C)=O)n4)n3)cc3c2C(CCCS3)C1 (stereo not shown) [Compound 75] | ≥ 8.00 |
| CN1Cc2cc(Nc3ncc(C#N)c(Nc4cccc(N=S(C)(C)=O)n4)n3)cc3c2C(CCOC3)C1 (stereo not shown) [Compound 76] | ≥ 8.00 |
| CN1Cc2cc(Nc3ncc(C#N)c(Nc4cccc(N=S(C)(C)=O)n4)n3)cc3c2C(CCSC3)C1 (stereo not shown) [Compound 77] | ≥ 8.00 |
| CN1Cc2cc(Nc3ncc(C#N)c(Nc4cccc(N=S(C)(C)=O)n4)n3)cc3c2C(COCC3)C1 (stereo not shown) [Compound 78] | ≥ 8.00 |
| CN1Cc2cc(Nc3ncc(C#N)c(Nc4cccc(N=S(C)(C)=O)n4)n3)cc3c2C(CSCC3)C1 (stereo not shown) [Compound 79] | ≥ 8.00 |
| CN1Cc2cc(Nc3ncc(C#N)c(Nc4cccc(N=S(C)(C)=O)n4)n3)cc3c2C(C1)OCCC3 (stereo not shown) [Compound 80] | ≥ 8.00 |
| CN1Cc2cc(Nc3ncc(C#N)c(Nc4cccc(N=S(C)(C)=O)n4)n3)cc3c2C(C1)SCCC3 (stereo not shown) [Compound 81] | ≥ 8.00 |
| CN1Cc2cc(Nc3ncc(C#N)c(Nc4cccc(N=S(C)(C)=O)n4)n3)cc3c2C(CCCCO3)C1 (stereo not shown) [Compound 82] | ≥ 8.00 |
| CN1Cc2cc(Nc3ncc(C#N)c(Nc4cccc(N=S(C)(C)=O)n4)n3)cc3c2C(CCCCS3)C1 (stereo not shown) [Compound 83] | ≥ 8.00 |
| CN1Cc2cc(Nc3ncc(C#N)c(Nc4cccc(N=S(C)(C)=O)n4)n3)cc3c2C(C=CCC3)C1 (stereo not shown) [Compound 84] | ≥ 8.00 |
| CN1Cc2cc(Nc3ncc(C#N)c(Nc4cccc(N=S(C)(C)=O)n4)n3)cc3c2C(CC=CC3)C1 (stereo not shown) [Compound 85] | ≥ 8.00 |
| CN1Cc2cc(Nc3ncc(C#N)c(Nc4cccc(N=S(C)(C)=O)n4)n3)cc3c2C(CCC=C3)C1 (stereo not shown) [Compound 86] | ≥ 8.00 |
| CN1Cc2cc(Nc3ncc(C#N)c(Nc4cccc(N=S(C)(C)=O)n4)n3)cc3c2C1CCCC3 (stereo not shown) [Compound 88] | ≥ 8.00 |
| CN(C)C1Cc2cc(Nc3ncc(C#N)c(Nc4cccc(N=S(C)(C)=O)n4)n3)cc3c2C(CCC3)C1 (stereo not shown) [Compound 89] | ≥ 8.00 |
| CN(C)C1Cc2cc(Nc3ncc(C#N)c(Nc4cccc(N=S(C)(C)=O)n4)n3)cc3c2C1CCC3 (stereo not shown) [Compound 90] | ≥ 8.00 |
| CCS(=O)(CC)=Nc1cccc(Nc2nc(Nc3cc4c5c(c3)CN(C)CC5CCC4)ncc2C#N)n1 (stereo not shown) [Compound 91] | ≥ 8.00 |
| CN1Cc2cc(Nc3ncc(C#N)c(Nc4cccc(N=S5(=O)CCC5)n4)n3)cc3c2C(CCC3)C1 (stereo not shown) [Compound 92] | ≥ 8.00 |
| CN1Cc2cc(Nc3ncc(C#N)c(Nc4cccc(N=S5(=O)CCCC5)n4)n3)cc3c2C(CCC3)C1 (stereo not shown) [Compound 93] | ≥ 8.00 |
| CN1Cc2cc(Nc3ncc(C(F)(F)F)c(Nc4cccc(N=S(C)(C)=O)n4)n3)cc3c2C(CCC3)C1 (stereo not shown) [Compound 94] | ≥ 8.00 |
| CN1Cc2cc(Nc3ncc(C4CC4)c(Nc4cccc(N=S(C)(C)=O)n4)n3)cc3c2C(CCC3)C1 (stereo not shown) [Compound 95] | ≥ 8.00 |
| CN1Cc2cc(Nc3ncc(P(C)(C)=O)c(Nc4cccc(N=S(C)(C)=O)n4)n3)cc3c2C(CCC3)C1 (stereo not shown) [Compound 96] | ≥ 8.00 |

| SMILES | pIC50 |
| --- | --- |
| CN1Cc2cc(Nc3ncc(S(C)(=O)=O)c(Nc4cccc(N=S(C)(C)=O)n4)n3)cc3c2C(CCC3)C1 (stereo not shown) [Compound 97] | ≥ 8.00 |
| CN1Cc2cc(Nc3ncc(C(N)=O)c(Nc4cccc(N=S(C)(C)=O)n4)n3)cc3c2C(CCC3)C1 (stereo not shown) [Compound 98] | ≥ 8.00 |
| CN1Cc2cc(Nc3ncc(-c4ccoc4)c(Nc4cccc(N=S(C)(C)=O)n4)n3)cc3c2C(CCC3)C1 (stereo not shown) [Compound 99] | ≥ 8.00 |
| CN1Cc2cc(Nc3ncc(Br)c(Nc4cccc(N=S(C)(C)=O)n4)n3)cc3c2C(CCC3)C1 (stereo not shown) [Compound 100] | ≥ 8.00 |
| CN1Cc2cc(Nc3ncc(C#N)c(Nc4cccc(N=S(C)(C)=O)c4)n3)cc3c2C(CCC3)C1 (stereo not shown) [Compound 101] | ≥ 8.00 |
| CN1Cc2cc(Nc3ncc(C#N)c(Nc4ccnc(N=S(C)(C)=O)c4)n3)cc3c2C(CCC3)C1 (stereo not shown) [Compound 102] | ≥ 8.00 |
| CN1Cc2cc(Nc3ncc(C#N)c(Nc4cncc(N=S(C)(C)=O)c4)n3)cc3c2C(CCC3)C1 (stereo not shown) [Compound 103] | ≥ 8.00 |
| CN1Cc2cc(Nc3ncc(C#N)c(Nc4cc(N=S(C)(C)=O)ccn4)n3)cc3c2C(CCC3)C1 (stereo not shown) [Compound 104] | ≥ 8.00 |
| CN1Cc2cc(Nc3ncc(C#N)c(Nc4ccnc(N=S(C)(C)=O)n4)n3)cc3c2C(CCC3)C1 (stereo not shown) [Compound 106] | ≥ 8.00 |
| CN1Cc2cc(Nc3ncc(C#N)c(Nc4nccc(N=S(C)(C)=O)n4)n3)cc3c2C(CCC3)C1 (stereo not shown) [Compound 107] | ≥ 8.00 |
| CN1Cc2cc(Nc3ncc(C#N)c(Nc4cc(F)cc(N=S(C)(C)=O)n4)n3)cc3c2C(CCC3)C1 (stereo not shown) [Compound 111] | ≥ 8.00 |
| CN1Cc2cc(Nc3ncc(C#N)c(-n4ccc5c(N=S(C)(C)=O)cccc54)n3)cc3c2C(CCC3)C1 (stereo not shown) [Compound 113] | ≥ 8.00 |
| CN1Cc2cc(Nc3ncc(C#N)c(N4CCc5c(N=S(C)(C)=O)cccc54)n3)cc3c2C(CCC3)C1 (stereo not shown) [Compound 114] | ≥ 8.00 |
| CN1Cc2cc(Nc3ncc(C#N)c(-c4c[nH]c5c(N=S(C)(C)=O)cccc45)n3)cc3c2C(CCC3)C1 (stereo not shown) [Compound 115] | ≥ 8.00 |
| CN1Cc2cc(Nc3ncc(C#N)c(-c4cn(C)c5c(N=S(C)(C)=O)cccc45)n3)cc3c2C(CCC3)C1 (stereo not shown) [Compound 116] | ≥ 8.00 |
| CN1Cc2cc(Nc3ncc(C#N)c(-n4cnc5c(N=S(C)(C)=O)cccc54)n3)cc3c2C(CCC3)C1 (stereo not shown) [Compound 117] | ≥ 8.00 |
| CN1Cc2cc(Nc3ncc(C#N)c(Nc4nc(N=S(C)(C)=O)cc5[nH]ccc45)n3)cc3c2C(CCC3)C1 (stereo not shown) [Compound 118] | ≥ 8.00 |
| CN1Cc2cc(Nc3ncc(C#N)c(Nc4nc(N=S(C)(C)=O)cc5c4CCN5)n3)cc3c2C(CCC3)C1 (stereo not shown) [Compound 119] | ≥ 8.00 |
| CN1Cc2cc(Nc3ncc(C#N)c(Nc4cc5c(c(N=S(C)(C)=O)n4)CCC5)n3)cc3c2C(CCC3)C1 (stereo not shown) [Compound 120] | ≥ 8.00 |
| C=Cc1cc(N=S(C)(C)=O)nc(Nc2nc(Nc3cc4c5c(c3)CN(C)CC5CCC4)ncc2C#N)c1 (stereo not shown) [Compound 122] | ≥ 8.00 |
| COc1ccc(Nc2nc(Nc3cc4c5c(c3)CN(C)CCC5CCC4)ncc2C#N)nc1N=S(C)(C)=O (stereo not shown) [Compound 123] | ≥ 8.00 |
| C=Cc1cc(N=S(C)(C)=O)nc(Nc2nc(Nc3cc4c5c(c3)CC(N(C)C)CCC5CCC4)ncc2C#N)c1 (stereo not shown) [Compound 124] | ≥ 8.00 |

| SMILES | pIC50 |
| --- | --- |
| CN1Cc2cc(Nc3ncc(C#N)c(Nc4cccc(N=S(C)(C)=O)n4)n3)cc3c2C2(CCC3)CC12 (stereo not shown) [Compound 125] | ≥ 8.00 |
| CN1Cc2cc(Nc3ncc(C#N)c(Nc4cccc(N=S(C)(C)=O)n4)n3)cc3c2C(C1)CN(C)C3 [Compound 126] | ≥ 8.00 |
| CN1Cc2cc(Nc3ncc(C#N)c(Nc4cccc(N=S(C)(C)=O)n4)n3)cc3c2C(CNC3)C1 (stereo not shown) [Compound 127] | ≥ 8.00 |
| CC(=O)N1Cc2cc(Nc3ncc(C#N)c(Nc4cccc(N=S(C)(C)=O)n4)n3)cc3c2C(CN(C)C3)C1 (stereo not shown) [Compound 128] | ≥ 8.00 |
| CN1Cc2cc(Nc3ncc(C#N)c(Nc4cccc(N=S(C)(C)=O)n4)n3)cc3c2C(C1)N(C)CC3 (stereo not shown) [Compound 129] | ≥ 8.00 |
| CN1Cc2cc(Nc3ncc(C#N)c(Nc4cccc(N=S(C)(C)=O)n4)n3)cc3c2C(C1)NCC3 (stereo not shown) [Compound 130] | ≥ 8.00 |
| CN1Cc2cc(Nc3ncc(C#N)c(Nc4cccc(N=S(C)(C)=O)n4)n3)cc3c2C(CCN3C)C1 (stereo not shown) [Compound 131] | ≥ 8.00 |
| CN1Cc2cc(Nc3ncc(C#N)c(Nc4cccc(N=S(C)(C)=O)n4)n3)cc3c2C(CCN3)C1 (stereo not shown) [Compound 132] | ≥ 8.00 |
| CN1Cc2cc(Nc3ncc(C#N)c(Nc4cccc(N=S(C)(C)=O)n4)n3)cc3c2C(CCC3)C1(C)C (stereo not shown) [Compound 133] | ≥ 8.00 |
| [2H]C([2H])([2H])N1Cc2cc(Nc3ncc(C#N)c(Nc4cccc(N=S(C)(C)=O)n4)n3)cc3c2C(CCC3)C1 (stereo not shown) [Compound 134] | ≥ 8.00 |
| [2H]c1ccc(Nc2nc(Nc3cc4c5c(c3)CN(C)CC5CCC4)ncc2C#N)nc1N=S(C)(C)=O (stereo not shown) [Compound 135] | ≥ 8.00 |
| [2H]C([2H])([2H])S(=O)(=Nc1cccc(Nc2nc(Nc3cc4c5c(c3)CN(C)CC5CCC4)ncc2C#N)n1)C([2H])([2H])[2H] (stereo not shown) [Compound 136] | ≥ 8.00 |
| [2H]C1([2H])C2CCCc3cc(Nc4ncc(C#N)c(Nc5cccc(N=S(C)(C)=O)n5)n4)cc(c32)CN1C (stereo not shown) [Compound 279] | ≥ 8.00 |
| [2H]C1([2H])c2cc(Nc3ncc(C#N)c(Nc4cccc(N=S(C)(C)=O)n4)n3)cc3c2C(CCC3)CN1C (stereo not shown) [Compound 280] | ≥ 8.00 |
| CN1Cc2cc(Nc3ncc(C#N)c(Nc4cccc(N=S(C)(C)=O)n4)n3)cc3c2C(CCC3O)C1 (stereo not shown) [Compound 289] | ≥ 8.00 |
| CN1Cc2cc(Nc3ncc(C#N)c(Nc4cccc(N=S(C)(C)=O)n4)n3)cc3c2C(CCC3N)C1 (stereo not shown) [Compound 290] | ≥ 8.00 |
| CN1Cc2cc(Nc3ncc(C#N)c(Nc4cccc(N=S(C)(C)=O)n4)n3)cc3c2C(CC(O)C3)C1 (stereo not shown) [Compound 291] | ≥ 8.00 |
| CN1Cc2cc(Nc3ncc(C#N)c(Nc4cccc(N=S(C)(C)=O)n4)n3)cc3c2C(CC(N)C3)C1 (stereo not shown) [Compound 292] | ≥ 8.00 |
| CN1Cc2cc(Nc3ncc(C#N)c(Nc4cccc(N=S(C)(C)=O)n4)n3)cc3c2C(C1)C(O)CC3 (stereo not shown) [Compound 293] | ≥ 8.00 |
| CN1Cc2cc(Nc3ncc(C#N)c(Nc4cccc(N=S(C)(C)=O)n4)n3)cc3c2C(C1)C(N)CC3 (stereo not shown) [Compound 294] | ≥ 8.00 |
